# Experimental data published in patent US20210121460A1, “A TRIPLE PHARMACEUTICAL COMBINATION COMPRISING DABRAFENIB, TRAMETINIB AND AN ERK INHIBITOR” (NOVARTIS AG, priority 2018, published 2021).
# Test system: BRAF V600E CRC xenograft model HT29
# Experiment: In vivo antitumor efficacy, HT29 BRAF V600E CRC xenograft model (Example 4, 14 day)
# Details: HT29 in female nude mice; compound A 75 mg/kg, dabrafenib 30 mg/kg, trametinib 0.3 mg/kg QD PO, cetuximab 20 mg/kg 2QW IP
# Procedure: HT29 xenografts was established by direct subcutaneous (sc) implantation of 2×10^6 cells into the right axillary region of 6-7 week old female nude mice.
# Animals were weighed at dosing day(s) and dose was body weight adjusted, dosing volume was 10 ml/kg. Tumor dimensions and body weights were collected at the time of randomization and twice weekly thereafter for the study duration.
# Percent treatment/control (T/C) values were calculated using the following formulae:
# % Regression=100×ΔT/T0 if ΔT<0;
# where: T=mean tumor volume of the drug-treated group on the final day of the study; ΔT=mean tumor volume of the drug-treated group on the final day of the study—mean tumor volume of the drug-treated group on initial day of dosing; T0=mean tumor volume of the drug-treated group on the day of cohort; C=mean tumor volume of the control group on the final day of the study; and ΔC=mean tumor volume of the control group on the final day of the study—mean tumor volume of the control group on initial day of dosing.
# All data were expressed as mean±standard error of the mean (SEM). Delta tumor volume and percent body weight changes were used for statistical analysis. Between group comparisons were carried out using the One way ANOVA followed by a post hoc Tukey test. For all statistical evaluations, the level of significance was set at p<0.05. Significance compared to the untreated control group is reported unless otherwise stated.
row,Compound,T/C % or Reg % at day 39 post implantation [%]
1,"CNC[C@@H](NC(=O)c1ccc(-c2nc([C@H]3CC[C@H](O)[C@@H](F)C3)cnc2N)cc1F)c1cc(F)cc(Br)c1 [compound A, 4-(3-amino-6-((1S,3S,4S)-3-fluoro-4-hydroxycyclohexyl)pyrazin-2-yl)-N—((S)-1-(3-bromo-5-fluorophenyl)-2-(methylamino)ethyl)-2-fluorobenzamide]",53.8
2,"CC(C)(C)c1nc(-c2cccc(NS(=O)(=O)c3c(F)cccc3F)c2F)c(-c2ccnc(N)n2)s1 [dabrafenib, N-(3-(5-(2-aminopyrimidin-4-yl)-2-(tert-butyl)thiazol-4-yl)-2-fluorophenyl)-2,6-difluorobenzenesulfonamide]",58.8
3,"CC(=O)Nc1cccc(-n2c(=O)n(C3CC3)c(=O)c3c(Nc4ccc(I)cc4F)n(C)c(=O)c(C)c32)c1 [trametinib, N-(3-(3-cyclopropyl-5-((2-fluoro-4-iodophenyl)amino)-6,8-dimethyl-2,4,7-trioxo-3,4,6,7-tetrahydropyrido[4,3-d]pyrimidin-1(2H)-yl)phenyl)acetamide]",47.7
